Experimental findings from ChEMBL document CHEMBL1134759, “Synthesis of a novel C-10 spiro-epoxide of paclitaxel” (Bioorg Med Chem Lett, 2001) are described below.

For assay [1], the system named is HCT-116. The assay can be described thus: In vitro inhibitory activity against Paclitaxel resistant colon carcinoma HCT VM46 cell line was determined. Type of assay: functional, cell-based. The note with it: Homo sapiens.
The test system of assay [2] is HCT-116. Nature of the assay: In vitro inhibitory activity against colon carcinoma HCT 116 cell line was determined. Type of assay: functional, cell-based. To be noted: Homo sapiens.
Another assay concerns A2780. Nature of the assay: In vitro inhibitory activity against Ovarian A2780 cell line was determined. It counts as functional, cell-based. The note with it: Homo sapiens.
The target of assay [3] is Tubulin alpha chain (Sus scrofa) (UniProt P02550). Nature of the assay: Potency to that of potency of paclitaxel in Tubulin polymerization assay. Type of assay: functional.
Tubulin alpha chain (Sus scrofa), sequence (P02550 whole entry, looked up): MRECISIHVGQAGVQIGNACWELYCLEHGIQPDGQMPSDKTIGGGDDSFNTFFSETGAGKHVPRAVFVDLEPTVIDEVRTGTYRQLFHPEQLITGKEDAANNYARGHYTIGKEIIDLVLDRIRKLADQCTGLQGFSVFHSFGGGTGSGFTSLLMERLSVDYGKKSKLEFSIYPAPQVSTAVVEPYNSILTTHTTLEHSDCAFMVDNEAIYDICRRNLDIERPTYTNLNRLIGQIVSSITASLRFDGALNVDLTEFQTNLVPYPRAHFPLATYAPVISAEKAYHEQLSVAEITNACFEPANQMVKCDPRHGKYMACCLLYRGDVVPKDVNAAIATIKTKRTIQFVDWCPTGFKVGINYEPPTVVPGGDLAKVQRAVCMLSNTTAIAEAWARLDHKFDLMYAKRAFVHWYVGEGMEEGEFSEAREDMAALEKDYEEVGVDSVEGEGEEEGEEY

As usually defined, the IC50 is the concentration needed to halve the response being measured. Consider `CC(=O)O[C@H]1C(=O)[C@@]2(C)C([C@H](OC(=O)c3ccccc3)C3(O)C[C@H](OC(=O)[C@H](O)[C@@H](NC(=O)c4ccccc4)c4ccccc4)C(C)=C1C3(C)C)[C@]1(OC(C)=O)COC1C[C@@H]2O` (some centres not stated), for which the IC50 in the assay on HCT-116 [1] is greater than 118 nM; in the assay on HCT-116 [2], 2.9 nM; in the assay on A2780 it was 3.5 nM. The Ratio in assay [3] was 1.

As for `COCO[C@H]1CC2OC[C@@]2(OC(C)=O)C2[C@H](OC(=O)c3ccccc3)C3(O)C[C@H](OC(=O)[C@H](O)[C@@H](NC(=O)c4ccccc4)c4ccccc4)C(C)=C(C3(C)C)[C@@]3(CO3)C(=O)[C@@]21C` (some centres not stated), the IC50 is 14 nM in the assay with HCT-116 [1], 1.5 nM in the assay with HCT-116 [2] and 1.8 nM in the assay on A2780. The Ratio in assay [3] worked out at 0.7.

As to `CC(=O)O[C@@]12COC1C[C@H](O)[C@@]1(C)C(=O)[C@@]3(CO3)C3=C(C)[C@@H](OC(=O)[C@H](O)[C@@H](NC(=O)c4ccccc4)c4ccccc4)CC(O)([C@@H](OC(=O)c4ccccc4)C21)C3(C)C` (some centres not stated), the IC50 in the assay with HCT-116 [1] is greater than 121 nM; with HCT-116 [2] it was 2 nM; with A2780, 2.5 nM. Further, in assay [3], the Ratio was determined as 0.5.
